This passage reports IC50 results from patent US5106835A, “Renin inhibitors” (American Cyanamid Company, priority 1990, dated 1992).

Molecules are shown by their SMILES.

This experiment deals with T1, human kidney renin (Homo sapiens, UniProt P00797).
T1 construct: Human renin was prepared from human kidney; from tissue; host or cells: human kidney
T1 sequence (P00797 67-406): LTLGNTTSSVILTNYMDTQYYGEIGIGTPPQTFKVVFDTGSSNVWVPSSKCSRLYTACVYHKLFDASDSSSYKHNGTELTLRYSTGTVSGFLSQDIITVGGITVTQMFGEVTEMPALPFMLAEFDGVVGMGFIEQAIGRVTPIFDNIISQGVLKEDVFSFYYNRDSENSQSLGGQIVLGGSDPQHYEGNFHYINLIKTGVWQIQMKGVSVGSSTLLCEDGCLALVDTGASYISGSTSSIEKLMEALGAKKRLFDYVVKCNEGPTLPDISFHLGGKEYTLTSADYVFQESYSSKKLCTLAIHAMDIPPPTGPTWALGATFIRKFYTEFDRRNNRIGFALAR
The experiment in a line: Radioimmunoassay screen for renin inhibitors (angiotensin I generation, then quantitation by radioimmunoassay). The class given is biochemical. As to conditions: human kidney renin, purified human plasma angiotensinogen, maleate buffer pH 6.0, 1 hour at 37° C.; read-out: IC50 Molar Concentration. Here is the method:
Radioimmunoassay Screen For Renin Inhibitors
The in vitro method for the screening of anti-renin compounds involves, first, angiotensin I generation, and second, the quantitation of the angiotensin I produced by radioimmunoassay.
The incubation medium consisted of 20 μl of purified human plasma angiotensinogen (1); 40 μl of human kidney renin (2); 5 μl of phenylmethylsulfonyl fluoride; 10 μl of disodium EDTA (10 mM); 10 μl of antirenin compound (5×10^-3, 5×10^-4, 5×10^-5) in dimethylformamide, or ethanol and a suitable amount of maleate buffer (77mM, pH 6.0) to make a final volume of 500 μl. The reaction mixture was incubated for 1 hour at 37° C. and the enzymatic reaction was stopped by placing the tube in ice-cold water. The angiotension I generated during the incubation was measured by a radioimmunoassay plasma renin activity kit (Clinical Assays, Inc.).
Radioimmunoassay Procedure
The incubation medium consisted of either 100 μl aliquots of the above reaction mixture or a standard amount of angiotensin I; 1000 μl of phosphate buffer (100 mM, pH7.6) and 100 μl of (^125 I)angiotensin in a gamma-coat, tube. After three hours of incubation at room temperature, the tubes were decanted, and the radioactivity of each tube was determined in a gamma counter. Duplicate determinations were performed for each incubation. The results were expressed in ng of angiotensin I generated per ml of generation medium per hour of incubation (ng/AI/ml/hr), and the % of inhibition was obtained by the following: % inhibition= [formula]
The results of this test on representative compounds of this invention appear in Table I, expressed as an IC50.
(1) The human plasma angiotensinogen derived from the blood of a person receiving oral contraceptive pills was purified by chromatography on a pepstatin-aminohexyl-agarose column.
(2) Human renin was prepared from human kidney.

As for `CC(C)OC(NC(=O)[C@H](Cc1ccccc1)NC(=O)OCc1ccccc1)C(=O)N[C@@H](CC1CCCCC1)[C@@H](O)c1nccs1` (stereo partly drawn) [N-[N-(Phenylmethoxy)carbonyl-L-phenylalanyl-D-2-(1-methyleth] [N-[N-[(phenylmethoxy)carbonyl-L-phenylalanyl-D-2-(1-methylethoxy)glycyl](S)2-amino-3-cyclohexyl-(R)1-(2-thiazolyl)propan-1-ol], the IC50 is 8.8 µM.
